BindingDB's records for doi:10.1016/1074-5521(95)90124-8 (University of California San Diego, 1995)
Where a name gives a salt, the structure may show the parent alone.

What was measured:
[1] = target: cAMP-dependent protein kinase (Oryctolagus cuniculus, UniProt Q95J97); assay: Inhibition Assay; conditions: pH 7.5
Source text: Cyclic AMP-dependent protein kinase (PKA) enzyme inhibition assay using purified recombinant C subunit of PKA (catalytic (C) subunit (cPKA)) with holoenzyme purified from rabbit muscle.

[2] = target: Protein kinase C beta type (Rattus norvegicus, UniProt P68403); assay: Inhibition Assay; conditions: 30 °C
Sequence of Protein kinase C beta type (P68403 whole entry): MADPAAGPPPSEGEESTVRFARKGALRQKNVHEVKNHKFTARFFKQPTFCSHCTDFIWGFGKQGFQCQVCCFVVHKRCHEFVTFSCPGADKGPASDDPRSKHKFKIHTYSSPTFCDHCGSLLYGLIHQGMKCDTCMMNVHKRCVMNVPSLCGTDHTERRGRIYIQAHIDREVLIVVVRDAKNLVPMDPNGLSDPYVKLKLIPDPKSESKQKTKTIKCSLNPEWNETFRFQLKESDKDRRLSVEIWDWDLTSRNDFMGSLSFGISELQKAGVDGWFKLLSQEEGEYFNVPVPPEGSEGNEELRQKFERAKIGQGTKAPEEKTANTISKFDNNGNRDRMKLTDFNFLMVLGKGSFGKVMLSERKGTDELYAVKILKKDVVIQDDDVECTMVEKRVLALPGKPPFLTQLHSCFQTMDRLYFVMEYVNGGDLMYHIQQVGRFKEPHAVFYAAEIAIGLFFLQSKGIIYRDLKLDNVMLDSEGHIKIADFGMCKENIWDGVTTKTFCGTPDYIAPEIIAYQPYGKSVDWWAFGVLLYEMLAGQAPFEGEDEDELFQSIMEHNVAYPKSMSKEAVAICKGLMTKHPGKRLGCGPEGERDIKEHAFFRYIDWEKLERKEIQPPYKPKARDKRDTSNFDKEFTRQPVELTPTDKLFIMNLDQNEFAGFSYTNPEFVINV

Compound | Ki [1] | IC50 ([1]; 30 °C) | Ki ([1]; 30 °C) | IC50 ([2]; pH 7.5) | Ki ([2]; pH 7.5) | IC50 [2] | Ki [2]
CN[C@@H]1C[C@H]2O[C@@](C)([C@@H]1OC)n1c3ccccc3c3c4c(c5c6ccccc6n2c5c31)C(=O)NC4 | 35 nM |  |  |  |  |  | 
O=S(ONCCNC/C=C/c1ccc(Br)cc1)c1cccc2cnccc12 (stereo unspecified) [H-89, 10] | 48 nM |  |  |  |  |  | 31.7 µM
O=C(N[C@@H]1CNCCC[C@H]1O)c1ccc(O)cc1 [Hexahydroazepine, 3] | > 10000 nM |  |  |  |  |  | > 1000 µM
CCCCCCOC(=O)[C@@]1(O)CC2O[C@]1(C)n1c3ccccc3c3c4c(c5c6ccccc6n2c5c31)C(=O)NC4 [KT5720, 9] | 56 nM |  |  |  |  |  | > 2 µM

Now from value to compound:

Ki [1] | IC50 ([1]; 30 °C) | Ki ([1]; 30 °C) | IC50 ([2]; pH 7.5) | Ki ([2]; pH 7.5) | IC50 [2] | Ki [2] | Compound
 | 6.3 nM | 3.9 nM | 834 nM | 0.64 µM |  |  | O=C(N[C@@H]1CNCCC[C@H]1OC(=O)c1cc(O)c(C(=O)c2ccccc2C(=O)O)c(O)c1)c1ccc(O)cc1
 | 5.5 nM | 3.4 nM | 111 nM | 0.08 µM |  |  | O=C(N[C@@H]1CNCCC[C@H]1OC(=O)c1ccc(C(=O)c2c(O)cccc2C(=O)O)cc1)c1ccc(O)cc1 [4'',6''-Dideoxybalanol, 6]
 | 5.7 nM | 3.5 nM | 95 nM | 0.069 µM |  |  | O=C(N[C@@H]1CNCCC[C@H]1OC(=O)c1cc(O)c(C(=O)c2c(O)cccc2C(=O)O)c(O)c1)c1ccccc1 [5'-Deoxybalanol, 7]
 | 18 nM | 11 nM |  |  | 6900 nM | 5 µM | O=C(N[C@@H]1CNCCC[C@H]1OC(=O)c1cc(O)c(C(=O)c2ccccc2O)c(O)c1)c1ccc(O)cc1 [14''-Decarboxybalanol hydrochloride, 5]
 |  |  |  |  |  | 0.0053 µM | O=C(N[C@@H]1CNCCC[C@H]1OC(=O)c1cc(O)c(C(=O)c2c(O)cccc2C(=O)O)c(O)c1)c1ccc(O)cc1 [Acyclic Balanol Analog (-)-1]
 |  | > 10000 nM |  | > 1000 µM |  |  | COC(=O)c1cc(O)c(C(=O)c2c(O)cccc2C(=O)O)c(O)c1 [Benzophenone fragment, 2]
